Entries after “also recorded” stand apart in the source; their conditions may differ.
Key:
Han:SPRD rats [1] = experiment: Oral BHB treatment in drinking water of juvenile Han:SPRD PKD rats, post-natal weeks 3-8; assay type: in vivo, rat
Description: Han:SPRD rats, a non-orthologous model of PKD with a mutation in Anks6 were placed on a time-restricted feeding (TRF) regime wherein TRF animals had access to food for an 8-h period within their 12-h dark cycle. Animals were treated for 5 weeks from post-natal weeks 3-8. […] Additionally, TRF-treated animals had increased levels of BHB and reduced blood glucose indicative of ketosis. Oral BHB Treatment Prevents Polycystic Disease Progression in Juvenile Rats. To investigate if BHB might affect PKD progression, Han:SPRD rats were treated with BHB from post-natal weeks 3-8 in the context of ad libitum feeding with normal, high-carbohydrate chow (NC). BHB was administered as a sodium and potassium salt in the drinking water ad libitum at a dose equivalent to that recommended as a dietary supplement in BHB supplement drinks. Control cohorts received either normal water or water supplemented with the molar equivalents of salt provided in the BHB supplement (a mixture of NaCl/KCl).

Han:SPRD rats [2] = experiment: BHB, citrate and combined BHB-citrate treatment in drinking water of Han:SPRD PKD rats, post-natal weeks 3-8; assay type: in vivo, rat; conditions: for dose dependence of benefit on PKD progression: varying concentrations, citrate particularly at the 120 mM dosage
Description: To investigate BHB, citrate, and combined BHB and citrate effects on PKD progression, Han:SPRD rats were treated with BHB or a combination of BHB and citrate from post-natal weeks 3-8 in the context of ad libitum feeding with normal, high-carbohydrate chow (NC). In the BHB treatments, BHB was administered as a sodium and potassium salt in the drinking water ad libitum at a dose equivalent to that recommended as a dietary supplement in BHB supplement drinks. In the citrate treatments, citrate was administered as a combination of tripotassium citrate and citric acid at a (0.82/1) ratio at a dose equivalent to that recommended utilized in citrate dietary supplements. Control cohorts received either normal water or water supplemented with the molar equivalents of salt provided in the BHB or BHB-citrate supplements (a mixture of NaCl/KCl). […]

[3] = PKD rats, 5 weeks BHB in drinking water
[4] = PKD rats, 5 weeks BHB in drinking water, normal chow, vs water- and salt-treated controls

Molecule | effect on body weight (Han:SPRD rats [1]; 5 weeks BHB in drinking water) | effect on wild-type kidneys and other organs (Han:SPRD rats [1]; 5 weeks BHB in drinking water) | fibrosis (Han:SPRD rats [1]; [3]) | kidney function (assessed by creatinine) (Han:SPRD rats [1]; [3]) | myofibroblasts (Han:SPRD rats [1]; [3]) | proliferation (Han:SPRD rats [1]; [3]) | 2-kidney to body weight ratio (Han:SPRD rats [1]; [4]) | cystic area (Han:SPRD rats [1]; [4]) | kidneys of PKD animals at the gross and histological level (Han:SPRD rats [1]; after 5 weeks of treatment) | effect on body weight (Han:SPRD rats [2]; 5 weeks in drinking water) | effect on wild-type kidneys and other organs (Han:SPRD rats [2]; 5 weeks in drinking water) | 2-kidney to body weight ratio (Han:SPRD rats [2]; PKD rats, 5 weeks, vs water- and salt-treated controls (FIG. 8A)) | cystic area (Han:SPRD rats [2]; PKD rats, 5 weeks, vs water- and salt-treated controls (FIG. 8B)) | kidneys of PKD animals at the gross and histological level (Han:SPRD rats [2]; after 5 weeks of treatment) | dose dependence of benefit on PKD progression (Han:SPRD rats [2])
CC(O)CC(=O)O (stereo not drawn) [BHB, beta-hydroxybutyric acid] | no effect | Neither wild-type kidneys nor other organs were affected | strong reduction | improved | almost complete elimination; also recorded: almost complete absence | inhibition | striking and unexpected reductions | striking and unexpected reductions | nearly indistinguishable from kidneys of wild-type animals | no effect | Neither wild-type kidneys nor other organs were affected | striking reductions | striking reductions | nearly indistinguishable from kidneys of wild-type animals | dose-dependent benefits
citrate | – | – | – | – | – | – | – | – | – | – | – | – | – | – | dose-dependent therapeutic effects

— patent US11013705B2, “Methods and compositions for supporting renal health” (The Regents of the University of California, priority 2019, dated 2021)
